Test results as given in patent US8697689B2, “Indole and benzomorpholine derivatives as modulators of metabotropic glutamate receptors” (Janssen Pharmaceuticals, Inc., priority 2008, dated 2014).

Tests used:
[1] = target: T1, human mGluR2 receptor (Homo sapiens, UniProt Q14416); assay: [35S]GTPγS binding assay (PAM assay) using membranes from CHO cells transfected with the human mGluR2 receptor; assay type: biochemical; conditions: in presence of mGluR2 agonist glutamate at a predetermined EC25 concentration; averages of duplicate values of 11-concentration response curves; error about 0.3 log-units; read-out: GTPgS-hR2 PAM pEC50 (converted)
T1 construct: expressed in transfected cells; host or cells: CHO cells
Text: The compounds provided in the present invention are positive allosteric modulators of mGluR2. These compounds appear to potentiate glutamate responses by binding to an allosteric site other than the glutamate binding site. The response of mGluR2 to a concentration of glutamate is increased when compounds of Formula (I) are present. Compounds of Formula (I) are expected to have their effect substantially at mGluR2 by virtue of their ability to enhance the function of the receptor. The behaviour of positive allosteric modulators tested at mGluR2 using the [^35S]GTPγS binding assay method described below and which is suitable for the identification of such compounds, and more particularly the compounds according to Formula (I), are shown in Table 4.
The [^35S]GTPγS binding assay is a functional membrane-based assay used to study G-protein coupled receptor (GPCR) function whereby incorporation of a non-hydrolysable form of GTP, [^35S]GTPγS (guanosine 5′-triphosphate, labelled with […] ^35S), is measured. The G-protein α subunit catalyzes the exchange of guanosine 5′-diphosphate (GDP) by guanosine triphosphate (GTP) and on activation of the GPCR by an agonist, [^35S]GTPγS, becomes incorporated and cannot be cleaved to continue the exchange cycle (Harper (1998) Current Protocols in Pharmacology 2.6.1-10, John Wiley & Sons, Inc.). […] Here we describe the use of the [^35S]GTPγS binding assay using membranes from cells transfected with the human mGluR2 receptor and adapted from Schaffhauser et al ((2003) Molecular Pharmacology 4:798-810) for the detection of the positive allosteric modulation (PAM) properties of the compounds of this invention.
CHO-cells were cultured to pre-confluence and stimulated with 5 mM butyrate for 24 hours, prior to washing in PBS (phosphate-buffered saline), and then collection by scraping in homogenisation buffer (50 mM Tris-HCl buffer, pH 7.4, 4° C.). Cell lysates were homogenized briefly (15 s) using an ultra-turrax homogenizer. The homogenate was centrifuged at 23 500×g for 10 min. and the supernatant discarded. The pellet was resuspended in 5 mM Tris-HCl, pH 7.4 and centrifuged again (30 000×g, 20 min., 4° C.). The final pellet was resuspended in 50 mM HEPES, pH 7.4 and stored at −80° C. in appropriate aliquots before use. Protein concentration was determined by the Bradford method (Bio-Rad, USA) with bovine serum albumin as standard.
Measurement of mGluR2 positive allosteric modulatory activity of test compounds in membranes containing human mGluR2 was performed using frozen membranes that were thawed and briefly homogenised prior to pre-incubation in 96-well microplates (15 μg/assay well, 30 minutes, 30° C.) in assay buffer (50 mM HEPES pH 7.4, 100 mM NaCl, 3 mM MgCl2, 50 μM GDP, 10 μg/ml saponin) with increasing concentrations of positive allosteric modulator (from 0.3 nM to 50 μM) and either a minimal pre-determined concentration of glutamate (PAM assay), or no added glutamate. For the PAM assay, membranes were pre-incubated with glutamate at EC25 concentration, i.e. a concentration that gives 25% of the maximal response glutamate, and is in accordance to published data (Pin et al. (1999) Eur. J. Pharmacol. 375:277-294). After addition of [^35S]GTPγS (0.1 nM, f.c.) to achieve a total reaction volume of 200 μl, microplates were shaken briefly and further incubated to allow [^35S]GTPγS incorporation on activation (30 minutes, 30° C.). The reaction was stopped by rapid vacuum filtration over glass-fibre filter plates (Unifilter 96-well GF/B filter plates, Perkin-Elmer, Downers Grove, USA) microplate using a 96-well plate cell harvester (Filtermate, Perkin-Elmer, USA), and then by washing three times with 300 μl of ice-cold wash buffer (Na2PO4.2H2O 10 mM, NaH2PO4.H2O 10 mM, pH=7.4). […]

T1 sequence (Q14416 19-872): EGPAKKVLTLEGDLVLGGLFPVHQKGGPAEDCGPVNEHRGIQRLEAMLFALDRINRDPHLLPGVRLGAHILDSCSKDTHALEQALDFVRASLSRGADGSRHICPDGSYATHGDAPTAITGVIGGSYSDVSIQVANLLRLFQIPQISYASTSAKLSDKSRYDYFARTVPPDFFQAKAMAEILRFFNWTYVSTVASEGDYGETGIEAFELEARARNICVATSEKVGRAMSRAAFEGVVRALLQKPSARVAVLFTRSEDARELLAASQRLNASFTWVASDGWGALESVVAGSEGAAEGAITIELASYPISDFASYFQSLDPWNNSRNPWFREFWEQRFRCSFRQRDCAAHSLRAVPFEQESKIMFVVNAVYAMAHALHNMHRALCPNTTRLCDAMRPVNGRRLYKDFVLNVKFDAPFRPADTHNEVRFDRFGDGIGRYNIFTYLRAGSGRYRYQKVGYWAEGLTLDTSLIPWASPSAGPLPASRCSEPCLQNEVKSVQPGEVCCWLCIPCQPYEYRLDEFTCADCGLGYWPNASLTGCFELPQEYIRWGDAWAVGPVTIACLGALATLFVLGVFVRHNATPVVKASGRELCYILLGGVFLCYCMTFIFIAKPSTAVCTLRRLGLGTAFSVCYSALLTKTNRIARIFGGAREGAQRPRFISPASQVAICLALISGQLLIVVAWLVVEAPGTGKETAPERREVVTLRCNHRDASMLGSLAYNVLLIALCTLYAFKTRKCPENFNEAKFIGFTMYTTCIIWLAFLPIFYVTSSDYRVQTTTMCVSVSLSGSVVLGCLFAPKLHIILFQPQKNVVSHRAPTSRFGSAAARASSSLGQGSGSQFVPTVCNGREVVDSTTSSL

| SMILES | EC50 [1] | melting point |
| --- | --- | --- |
| CCCCn1ccc(-c2ccc3c(c2)OCCN3C2CCOCC2)c(Cl)c1=O [Compound 1, 1-Butyl-3-chloro-4-[4-(tetrahydro-pyran-4-yl)-3,4-dihydro-2H-benzo[1,4]oxazin-7-yl]-1H-pyridin-2-one] | 589 nM |  |
| O=c1c(Cl)c(-c2ccc3c(ccn3[C@H]3CC[C@H](O)CC3)c2)ccn1CC1CC1 [Compound 8, trans-3-Chloro-1-cyclopropylmethyl-4-[1-(4-hydroxy-cyclohexyl)-1H-indol-5-yl]-1H-pyridin-2-one] | 302 nM | 209.4 °C |
| CCCCn1ccc(-c2ccc3c(ccn3[C@H]3CC[C@@](C)(O)CC3)c2)c(Cl)c1=O [Compound 6, cis-1-Butyl-3-chloro-4-[1-(4-hydroxy-4-methyl-cyclohexyl)-1H-indol-5-yl]-1H-pyridin-2-one] | 302 nM |  |
| CCCCn1ccc(-c2ccc3c(ccn3C3CCOCC3)c2)c(Cl)c1=O [Compound 9, 1-Butyl-3-chloro-4-[1-(tetrahydro-pyran-4-yl)-1H-indol-5-yl]-1H-pyridin-2-one] | 309 nM |  |
| CC(C)CCn1ccc(-c2ccc3c(ccn3[C@H]3CC[C@H](O)CC3)c2)c(Cl)c1=O [Compound 7, trans-3-Chloro-4-[1-(4-hydroxy-cyclohexyl)-1H-indol-5-yl]-1-(3-methyl-butyl)-1H-pyridin-2-one] | 89.1 nM | 182.3 °C |
| CCCCn1ccc(-c2ccc3c(ccn3[C@H]3CC[C@](C)(O)CC3)c2)c(Cl)c1=O [Compound 5, trans-1-Butyl-3-chloro-4-[1-(4-hydroxy-4-methyl-cyclohexyl)-1H-indol-5-yl]-1H-pyridin-2-one] | 75.9 nM |  |

Continued, values first:

| EC50 [1] | melting point | SMILES |
| --- | --- | --- |
| 148 nM |  | CCCCn1ccc(-c2ccc3c(ccn3[C@H]3CC[C@@H](O)CC3)c2)c(Cl)c1=O [Compound 4, cis-1-Butyl-3-chloro-4-[1-(4-hydroxy-cyclohexyl)-1H-indol-5-yl]-1H-pyridin-2-one] |
| 102 nM |  | CCCCn1ccc(-c2ccc3c(ccn3[C@H]3CC[C@H](O)CC3)c2)c(Cl)c1=O [Compound 3, trans-1-Butyl-3-chloro-4-[1-(4-hydroxy-cyclohexyl)-1H-indol-5-yl]-1H-pyridin-2-one] |
